The values below come from ChEMBL document CHEMBL1149282, “A systematic approach to the optimization of substrate-based inhibitors of the hepatitis C virus NS3 protease: discovery of potent and specific tripeptide inhibitors” (J Med Chem, 2004).

A word on the IC50: it is the midpoint of a concentration-inhibition curve. Usually EC50 stands for the concentration giving half of the maximal effect. The low end stands for a more potent agent, the high end for a less potent agent.

Square brackets hold non-standard residues; d marks the D form. Peptide text beside a SMILES is read from it. * marks the point of attachment. Hyp(2-Ph-quinolin-4-yl) = O=C(O)[C@@H]1C[C@@H](Oc2cc(-c3ccccc3)nc3ccccc23)CN1; Hyp(quinolin-4-yl) = O=C(O)[C@@H]1C[C@@H](Oc2ccnc3ccccc23)CN1; Ac3c(1R,2S-2-vinyl) = C=C[C@@H]1C[C@]1(N)C(=O)O; Hyp = O=C(O)[C@@H]1C[C@@H](O)CN1; Chg = N[C@H](C(=O)O)C1CCCCC1; X1 = c1ccc2cc(C*)ccc2c1

Assay [1] in a line: Inhibition of HCV NS3 protease. On the set-up: species or system Hepacivirus hominis.
For a further assay, the system named is Hepatitis C virus. Kind of assay: Antiviral activity in Huh7 cells containing sub-genomic HCV subtype 1b replicon by RT-PCR. To be noted: genotype 1b, Huh-7. It is filed as functional, organism-based, Hepacivirus hominis. (In antiviral work, replicon cells carry a viral genome segment that copies itself.)
The target in the next assay is T1, Neutrophil elastase (Homo sapiens, UniProt P08246).
T1 sequence (P08246 whole entry): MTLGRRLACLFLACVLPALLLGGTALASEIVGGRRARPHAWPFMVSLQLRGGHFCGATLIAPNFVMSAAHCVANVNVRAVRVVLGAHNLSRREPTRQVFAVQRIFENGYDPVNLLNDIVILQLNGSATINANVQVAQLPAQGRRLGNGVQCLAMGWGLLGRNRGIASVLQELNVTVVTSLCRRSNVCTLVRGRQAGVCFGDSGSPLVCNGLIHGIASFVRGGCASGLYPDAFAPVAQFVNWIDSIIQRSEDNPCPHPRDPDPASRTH
Kind of assay: Inhibition of human leucocyte elastase.

Another assay concerns the target Cathepsin B (Homo sapiens, UniProt P07858). Briefly: Inhibition of human cathepsin B.

In assay [1], `C=C[C@@H]1C[C@]1(NC(=O)[C@@H]1C[C@@H](Oc2cc(-c3ccccc3)nc3cc(OC)ccc23)CN1C(=O)[C@@H](NC(=O)[C@@H](NC(C)=O)C1CCCCC1)C(C)C)C(=O)O` registered an IC50 of 2 nM.

In the case of `C=C[C@@H]1C[C@]1(NC(=O)[C@@H]1C[C@@H](Oc2cc(-c3ccccc3)nc3cc(OC)ccc23)CN1C(=O)[C@@H](NC(=O)OC(C)(C)C)C(C)(C)C)C(=O)O`, the values for the IC50 (in assay [1]; at Neutrophil elastase) were 29 nM and greater than 75000 nM, respectively. This molecule also displayed an EC50 with Hepatitis C virus of 660 nM.

As for `C=C[C@@H]1C[C@]1(NC(=O)[C@@H]1C[C@@H](Oc2cc(-c3ccccc3)nc3cc(OC(F)(F)F)ccc23)CN1C(=O)[C@@H](NC(=O)OC(C)(C)C)C(C)(C)C)C(=O)O`, in assay [1], the IC50 was 790 nM.

`C=C[C@@H]1C[C@]1(NC(=O)[C@@H]1C[C@@H](Oc2cc(-c3ccccc3)nc3ccccc23)CN1C(=O)[C@@H](NC(=O)OC(C)(C)C)C(C)(C)C)C(=O)O`: the IC50 in assay [1] is 150 nM.

As to `C=C[C@@H]1C[C@]1(NC(=O)[C@@H]1C[C@@H](Oc2cc(-c3ccccc3)nc3cc(SC)ccc23)CN1C(=O)[C@@H](NC(=O)OC(C)(C)C)C(C)(C)C)C(=O)O`, the IC50 in assay [1] amounted to 139 nM.

As for `C=C[C@@H]1C[C@]1(NC(=O)[C@@H]1C[C@@H](Oc2cc(-c3ccccc3)nc3cc(Br)ccc23)CN1C(=O)[C@@H](NC(=O)OC(C)(C)C)C(C)(C)C)C(=O)O`, half-maximal inhibition in assay [1] (IC50) was put at 350 nM.

In assay [1], `C=C[C@@H]1C[C@]1(NC(=O)[C@@H]1C[C@@H](Oc2cc(-c3ccccc3)nc3cc(C(F)(F)F)ccc23)CN1C(=O)[C@@H](NC(=O)OC(C)(C)C)C(C)(C)C)C(=O)O` displayed an IC50 of 828 nM.

`C=C[C@@H]1C[C@]1(NC(=O)[C@@H]1C[C@@H](Oc2cc(-c3ccccc3)nc3cc(OC)ccc23)CN1C(=O)[C@@H](NC(=O)OC1CCCC1)C(C)(C)C)C(=O)O` registered an IC50 in assay [1] of 14 nM.

On to `C=C[C@@H]1C[C@]1(NC(=O)[C@@H]1C[C@@H](Oc2cc(-c3ccccc3)nc3c(OC)c(OC)ccc23)CN1C(=O)[C@@H](NC(=O)[C@@H](NC(C)=O)C1CCCCC1)C(C)C)C(=O)O`, for which the IC50 in assay [1] came to 13 nM.

The molecule `C=C[C@@H]1C[C@]1(NC(=O)[C@@H]1C[C@@H](Oc2cc(-c3ccccc3)nc3cc(OC)ccc23)CN1C(=O)[C@@H](NC(=O)[C@@H](NC(C)=O)C1CCCCC1)C(C)(C)C)C(=O)O` returned an IC50 in assay [1] of 1 nM.

In the case of `C=C[C@@H]1C[C@]1(NC(=O)[C@@H]1C[C@@H](Oc2cc(-c3ccccc3)nc3cc(OC)ccc23)CN1C(=O)[C@@H](NC(=O)[C@@H](C)C1CCCCC1)C(C)(C)C)C(=O)O`, the IC50 in assay [1] came out at 37 nM.

As for `C=C[C@@H]1C[C@]1(NC(=O)[C@@H]1C[C@@H](Oc2cc(-c3ccccc3)nc3cc(OC)ccc23)CN1C(=O)[C@@H](NC(=O)NC1CCCCC1)C(C)(C)C)C(=O)O`, the 50% inhibitory concentration (IC50) in assay [1] came to 9 nM. This molecule gave an EC50 in the assay with Hepatitis C virus of 2900 nM.

`C=C[C@@H]1C[C@]1(NC(=O)[C@@H]1C[C@@H](Oc2cc(-c3ccccc3)nc3cccc(OC)c23)CN1C(=O)[C@@H](NC(=O)[C@@H](NC(C)=O)C1CCCCC1)C(C)C)C(=O)O` had an IC50 in assay [1] of 557 nM.

Molecule `C=C[C@@H]1C[C@]1(NC(=O)[C@@H]1C[C@@H](Oc2cc(-c3ccccc3)nc3ccc(OC)cc23)CN1C(=O)[C@@H](NC(=O)[C@@H](NC(C)=O)C1CCCCC1)C(C)C)C(=O)O` showed an IC50 in assay [1] of 41 nM.

As to `C=C[C@@H]1C[C@]1(NC(=O)[C@@H]1C[C@@H](Oc2cc(-c3ccccc3)nc3cc(OC)ccc23)CN1C(=O)[C@@H](NC(=O)[C@@H](N)C1CCCCC1)C(C)(C)C)C(=O)O`, the half-maximal inhibitory concentration (IC50) in assay [1] turned out to be 18 nM.

In assay [1], `C=C[C@@H]1C[C@]1(NC(=O)[C@@H]1C[C@@H](Oc2cc(-c3ccccc3)nc3cc(OC(C)C)ccc23)CN1C(=O)[C@@H](NC(=O)OC(C)(C)C)C(C)(C)C)C(=O)O` had an IC50 of 228 nM.

The molecule `C=C[C@@H]1C[C@]1(NC(=O)[C@@H]1C[C@@H](Oc2cc(-c3ccccc3)nc3cc(OC)ccc23)CN1C(=O)[C@@H](NC(=O)CC1CCCCC1)C(C)(C)C)C(=O)O` registered an IC50 in assay [1] of 37 nM.

Regarding `C=C[C@@H]1C[C@]1(NC(=O)[C@@H]1C[C@@H](Oc2cc(-c3ccccc3)nc3cc(OC)ccc23)CN1C(=O)[C@@H](NC(=O)OC1CCC1)C(C)(C)C)C(=O)O`, the 50% inhibitory concentration (IC50) in assay [1] came to 24 nM. The molecule also gave an EC50 with Hepatitis C virus of 960 nM.

In assay [1], `C=C[C@@H]1C[C@]1(NC(=O)[C@@H]1C[C@@H](Oc2cc(-c3ccccc3)nc3cc(OC)ccc23)CN1C(=O)[C@@H](NC(=O)NC1CCCC1)C(C)(C)C)C(=O)O` displayed an IC50 of 5 nM. In addition, the EC50 in the assay with Hepatitis C virus was found to be 910 nM.

Turning to `C=C[C@@H]1C[C@]1(NC(=O)[C@@H]1C[C@@H](Oc2cc(-c3ccccc3)nc3cc(OC)ccc23)CN1C(=O)[C@@H](NC(=O)NC(C)(C)C)C(C)(C)C)C(=O)O`, 8 nM corresponded to half-maximal inhibition in assay [1] (IC50). This molecule also gave an EC50 with Hepatitis C virus of 1220 nM.

Molecule `C=C[C@@H]1C[C@]1(NC(=O)[C@@H]1C[C@@H](Oc2cc(-c3ccccc3)nc3cc(NC(C)=O)ccc23)CN1C(=O)[C@@H](NC(=O)OC(C)(C)C)C(C)(C)C)C(=O)O` came in with an IC50 in assay [1] of 29 nM.

With `C=C[C@@H]1C[C@]1(NC(=O)[C@@H]1C[C@@H](Oc2cc(-c3ccccc3)nc3cc(F)ccc23)CN1C(=O)[C@@H](NC(=O)OC(C)(C)C)C(C)(C)C)C(=O)O`, the IC50 in assay [1] was 282 nM.

Turning to `C=C[C@@H]1C[C@]1(NC(=O)[C@@H]1C[C@@H](Oc2cc(-c3ccccc3)nc3cc(C(=O)O)ccc23)CN1C(=O)[C@@H](NC(=O)OC(C)(C)C)C(C)(C)C)C(=O)O`, the concentration for half-maximal inhibition (IC50) in assay [1] is greater than 1000 nM.

With `C=C[C@@H]1C[C@]1(NC(=O)[C@@H]1C[C@@H](Oc2cc(-c3ccccc3)nc3cc(OC)ccc23)CN1C(=O)[C@@H](NC(=O)OC1CCCCC1)C(C)(C)C)C(=O)O`, the IC50 in assay [1] was 30 nM. Besides, the concentration giving a half-maximal response (EC50) in the assay on Hepatitis C virus was 460 nM.

As to `C=C[C@@H]1C[C@]1(NC(=O)[C@@H]1C[C@@H](Oc2cc(-c3ccccc3)nc3cc(OC)ccc23)CN1C(=O)[C@@H](OC(=O)NC1CCCC1)C(C)(C)C)C(=O)O`, the IC50 in assay [1] turned out to be 148 nM.

`C=C[C@@H]1C[C@]1(NC(=O)[C@@H]1C[C@@H](Oc2cc(-c3ccccc3)nc3cc(OC)ccc23)CN1C(=O)[C@@H](NC(=O)N(C)C(C)(C)C)C(C)(C)C)C(=O)O` had a half-inhibitory concentration (IC50) in assay [1] of 205 nM.

In assay [1], `C=C[C@@H]1C[C@]1(NC(=O)[C@@H]1C[C@@H](Oc2cc(-c3ccccc3)nc3c(OC)cccc23)CN1C(=O)[C@@H](NC(=O)[C@@H](NC(C)=O)C1CCCCC1)C(C)C)C(=O)O` registered an IC50 of 5 nM.

In assay [1], `C=C[C@@H]1C[C@]1(NC(=O)[C@@H]1C[C@@H](Oc2ccnc3cc(OC)ccc23)CN1C(=O)[C@@H](NC(=O)[C@@H](NC(C)=O)C1CCCCC1)C(C)C)C(=O)O` yielded an IC50 of 10 nM.

With `C=C[C@@H]1C[C@]1(NC(=O)[C@@H]1C[C@@H](Oc2cc(-c3ccccc3)nc3ccccc23)CN1C(=O)[C@@H](NC(=O)[C@@H](NC(C)=O)C1CCCCC1)C(C)C)C(=O)O` (Ac-[Chg]V[Hyp(2-Ph-quinolin-4-yl)][Ac3c(1R,2S-2-vinyl)]-OH), the IC50 in assay [1] was 13 nM; at Cathepsin B it was greater than 30000 nM; at Neutrophil elastase, greater than 30000 nM.

For `C=C[C@@H]1C[C@]1(NC(=O)[C@@H]1C[C@@H](Oc2ccnc3ccccc23)CN1C(=O)[C@@H](NC(=O)[C@@H](NC(C)=O)C1CCCCC1)C(C)C)C(=O)O` (Ac-[Chg]V[Hyp(quinolin-4-yl)][Ac3c(1R,2S-2-vinyl)]-OH), in assay [1], the IC50 was 170 nM.

Molecule `C=C[C@@H]1C[C@]1(NC(=O)[C@@H]1C[C@@H](OCc2ccc3ccccc3c2)CN1C(=O)[C@@H](NC(=O)[C@@H](NC(C)=O)C1CCCCC1)C(C)C)C(=O)O` (Ac-[Chg]V[Hyp](X1)[Ac3c(1R,2S-2-vinyl)]-OH) gave an IC50 in assay [1] of 600 nM.
